# Assay results from patent US20260217697A1, “COMPOUNDS COMPRISING HETEROARYL RINGS AND COMPOSITIONS AND METHODS THEREOF” (lonGen Therapeutics Co., Ltd., priority 2022, published 2026).
# Molecular target: T1, hTRPV3 (Homo sapiens, UniProt Q8NET8)
# T1 construct: The commercially available plasmid with the full-length cDNA of hTRPV3 (791 aa) (NM_001258205.2); host or cells: HEK293T
# T1 sequence (Q8NET8 1-791 isoform Q8NET8-2): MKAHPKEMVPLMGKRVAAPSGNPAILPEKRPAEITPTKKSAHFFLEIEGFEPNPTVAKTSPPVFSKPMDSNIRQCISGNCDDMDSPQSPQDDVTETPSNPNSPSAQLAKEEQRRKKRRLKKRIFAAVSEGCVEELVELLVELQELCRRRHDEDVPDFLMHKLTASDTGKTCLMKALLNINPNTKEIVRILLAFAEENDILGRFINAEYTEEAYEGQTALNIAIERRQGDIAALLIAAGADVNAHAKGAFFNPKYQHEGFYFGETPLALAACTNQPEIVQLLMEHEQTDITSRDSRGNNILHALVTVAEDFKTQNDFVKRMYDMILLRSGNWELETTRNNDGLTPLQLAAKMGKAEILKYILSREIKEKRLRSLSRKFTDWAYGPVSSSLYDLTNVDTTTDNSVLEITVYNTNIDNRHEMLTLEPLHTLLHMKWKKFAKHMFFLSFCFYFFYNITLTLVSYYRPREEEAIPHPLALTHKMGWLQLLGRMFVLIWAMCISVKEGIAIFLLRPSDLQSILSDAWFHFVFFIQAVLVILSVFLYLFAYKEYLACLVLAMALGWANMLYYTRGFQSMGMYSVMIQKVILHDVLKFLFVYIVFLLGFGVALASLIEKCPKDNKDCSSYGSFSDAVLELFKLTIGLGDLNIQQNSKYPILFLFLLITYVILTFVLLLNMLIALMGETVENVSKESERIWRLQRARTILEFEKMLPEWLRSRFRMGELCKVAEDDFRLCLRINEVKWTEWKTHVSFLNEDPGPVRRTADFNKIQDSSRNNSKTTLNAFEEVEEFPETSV
# Assay: Whole-cell patch-clamp recording of hTRPV3 current in transfected HEK293T cells (2-APB induced)
# Format: cell-based
# Details: current induced by 300 μM 2-APB, compounds tested up to 10 μM, room temperature
# Protocol: Various technologies can be utilized to assess TRPV3 activation in accordance with the present disclosure. For example, in some embodiments, compounds are assessed in in vitro patch clamp experiments. Certain useful procedures are described herein as examples.
# In some embodiments, whole-cell patch-clamp recordings were used to detect the current through hTRPV3 channels in the HEK293T cell line transfected with hTRPV3 cDNA and evaluate the exact blocking effect of compounds on hTRPV3. In some embodiments, a perfusion system was adopted to control the extracellular solution, including the addition of the agonist and different antagonists.
# HEK293T cells were cultured in a Dulbecco's modified Eagle's medium containing 10% fetal bovine serum (Thermo Scientific) and 1% penicillin/streptomycin (Thermo Scientific) at 37° C. with 5% CO2. The commercially available plasmid with the full-length cDNA of hTRPV3 (791 aa) (NM_001258205.2) was purchased from OriGene Technologies. The transfection of hTRPV3 plasmids was conducted using Lipofectamine™ 3000 following the manufacturer's instructions (Invitrogen).
# Whole-cell patch-clamp experiments were performed 18 h post-transfection, using a MultiClamp 700B amplifier driven by pClamp 11 software (Molecular Devices). In order to achieve good single-cell physical separation, HEK293T cells with hTRPV3 expression were digested and then re-plated at low density on glass coverslips. Electrodes were pulled from borosilicate glass with a P-97 micropipette puller (Sutter Instruments) and those with resistances of 3-5 MΩ are used for experiments. In some embodiments, an Ag—AgCl wire was used as a reference electrode and signals are filtered using a 2.9 kHz low-pass Bessel filter. Membrane potential was held at 0 mV. For recording of agonist-induced activation and inhibition by different test compounds, currents were elicited by a protocol consisting of a 400-ms step to +80 mV, followed by a 400-ms step to −80 mV at 2-s intervals. both pipette and bath solutions contained 130 mM NaCl, 0.3 mM EDTA, and 3 mM HEPES (buffered to pH 7.4 with NaOH). All recordings were made at room temperature.
# All patch-clamp recordings were analyzed using the Clampfit software and GraphPad Prism 6.0 software. Specifically, data are analyzed by calculating the degree of current amplitude after the test compound addition compared with the unblocked agonist-induced current amplitude. The resulting blocking percentage at each concentration was used to make a concentration-response analysis and fitted to the Hill equation: blocking percentage=minimum blocking percentage+ (maximum blocking percentage-minimum blocking percentage)/(1+10^(Hill slope* […])). The minimum blocking percentage is 0% and maximum blocking percentage is 100%, while the Hill slope and the IC50 were determined as the curve fitting routine. Compounds of interest were tested against hTRPV3 at concentrations up to 10 μM, and certain data was used to estimate IC50 as described herein.
row,SMILES,IC50 [nM]
1,"CCOc1ncnc(OCC)c1C(=O)Nc1nc2c(s1)C(CC)(CC)Oc1cc(C(F)(F)F)ccc1-2 [compound 47, N-(4,4-diethyl-7-(trifluoromethyl)-4H-chromeno[4,3-d]thiazol-2-yl)-4,6-diethoxypyrimidine-5-carboxamide]",100 to 1000
2,"CCC1(CC)Oc2cc(C(F)(F)F)ccc2-c2nc(NC(=O)c3c(OCC(F)(F)F)ncnc3OCC(F)(F)F)sc21 [compound 48, N-(4,4-diethyl-7-(trifluoromethyl)-4H-chromeno[4,3-d]thiazol-2-yl)-4,6-bis(2,2,2-trifluoroethoxy)pyrimidine-5-carboxamide]",≥ 10000
3,"CCC1(CC)Oc2cc(Br)ccc2-c2nc(NC(=O)c3c(OC)ncnc3OC)sc21 [compound 49, N-(7-bromo-4,4-diethyl-4H-chromeno[4,3-d]thiazol-2-yl)-4,6-dimethoxypyrimidine-5-carboxamide]",1000 to 10000
4,"CCC1(CC)Oc2cc(C#N)ccc2-c2nc(NC(=O)c3c(OC)ncnc3OC)sc21 [compound 50, N-(7-cyano-4,4-diethyl-4H-chromeno[4,3-d]thiazol-2-yl)-4,6-dimethoxypyrimidine-5-carboxamide]",100 to 1000
5,"CCC1(CC)Oc2cc3c(cc2-c2nc(NC(=O)c4c(OC)ncnc4OC)sc21)OCO3 [compound 51, N-(4,4-diethyl-4H-[1,3]dioxolo[4′,5′: 6,7]chromeno[4,3-d]thiazol-2-yl)-4,6-dimethoxypyrimidine-5-carboxamide]",≥ 10000
6,"CCC1(CC)Oc2cc(C(F)(F)F)ccc2-c2nc(NC(=O)c3c(C)ncnc3C)sc21 [compound 52, N-(4,4-diethyl-7-(trifluoromethyl)-4H-chromeno[4,3-d]thiazol-2-yl)-4,6-dimethylpyrimidine-5-carboxamide]",1000 to 10000
7,CCC1(CC)Oc2cc(C(F)(F)F)ccc2-c2nc(N(C)C(=O)c3c(OC)ncnc3OC)sc21 [compound 53],≥ 10000
8,"CCC1(CC)Oc2cc(C3CC3)ccc2-c2nc(NC(=O)c3c(OC)ncnc3OC)sc21 [compound 54, N-(7-cyclopropyl-4,4-diethyl-4H-chromeno[4,3-d]thiazol-2-yl)-4,6-dimethoxypyrimidine-5-carboxamide]",100 to 1000
9,"C=C(C)c1ccc2c(c1)OC(CC)(CC)c1sc(NC(=O)c3c(OC)ncnc3OC)nc1-2 [compound 55, N-(4,4-diethyl-7-(prop-1-en-2-yl)-4H-chromeno[4,3-d]thiazol-2-yl)-4,6-dimethoxypyrimidine-5-carboxamide]",100 to 1000
10,CCC1(CC)Oc2cc(C(F)(F)F)ccc2-c2nc(NS(=O)(=O)c3c(OC)ncnc3OC)sc21 [compound 56],≥ 10000
11,"CCC1(CC)Oc2cc(C(F)(F)F)ccc2-c2nc(NC(=O)c3c(C)ncnc3OC)sc21 [compound 57, N-(4,4-diethyl-7-(trifluoromethyl)-4H-chromeno[4,3-d]thiazol-2-yl)-4-methoxy-6-methylpyrimidine-5-carboxamide]",100 to 1000
12,"CCC1(CC)Oc2cc(N3CCOCC3)ccc2-c2nc(NC(=O)c3c(OC)ncnc3OC)sc21 [compound 58, N-(4,4-diethyl-7-morpholino-4H-chromeno[4,3-d]thiazol-2-yl)-4,6-dimethoxypyrimidine-5-carboxamide]",1000 to 10000
13,"COc1ncnc(OC)c1C(=O)Nc1nc2c(s1)C1(CCOCC1)Oc1cc(C(F)(F)F)ccc1-2 [compound 59, 4,6-dimethoxy-N-(7-(trifluoromethyl)-2′,3′,5′,6′-tetrahydrospiro[chromeno[4,3-d]thiazole-4,4′-pyran]-2-yl)pyrimidine-5-carboxamide]",100 to 1000
14,"CCC1(CC)Oc2nc(C(F)(F)F)ccc2-c2nc(NC(=O)c3c(OC)ncnc3OC)sc21 [compound 60, N-(4,4-diethyl-7-(trifluoromethyl)-4H-thiazolo[4′,5′: 4,5]pyrano[2,3-b]pyridin-2-yl)-4,6-dimethoxypyrimidine-5-carboxamide]",100 to 1000
15,"CCC1(CC)Oc2cc(C(C)(C)O)ccc2-c2nc(NC(=O)c3c(OC)ncnc3OC)sc21 [compound 61, N-(4,4-diethyl-7-(2-hydroxypropan-2-yl)-4H-chromeno[4,3-d]thiazol-2-yl)-4,6-dimethoxypyrimidine-5-carboxamide]",1000 to 10000
16,"CCOC(=O)c1ccc2c(c1)OC(CC)(CC)c1sc(NC(=O)c3c(OC)ncnc3OC)nc1-2 [compound 62, ethyl 2-(4,6-dimethoxypyrimidine-5-carboxamido)-4,4-diethyl-4H-chromeno[4,3-d]thiazole-7-carboxylate]",1000 to 10000
17,"COc1ncnc(OC)c1C(=O)Nc1nc2c(s1)C1(CN(C(=O)OC(C)(C)C)C1)Oc1cc(C(F)(F)F)ccc1-2 [compound 63, tert-butyl 2′-(4,6-dimethoxypyrimidine-5-carboxamido)-7′-(trifluoromethyl)spiro[azetidine-3,4′-chromeno[4,3-d]thiazole]-1-carboxylate]",< 100
18,"COc1ncnc(OC)c1C(=O)Nc1nc2c(s1)C1(CCN(C(C)=O)CC1)Oc1cc(C(F)(F)F)ccc1-2 [compound 64, N-(1′-acetyl-7-(trifluoromethyl)spiro[chromeno[4,3-d]thiazole-4,4′-piperidin]-2-yl)-4,6-dimethoxypyrimidine-5-carboxamide]",100 to 1000
19,"COc1ncnc(OC)c1C(=O)Nc1nc2c(s1)C1(COC1)Oc1cc(C(F)(F)F)ccc1-2 [compound 65, 4,6-dimethoxy-N-(7-(trifluoromethyl)spiro[chromeno[4,3-d]thiazole-4,3′-oxetan]-2-yl)pyrimidine-5-carboxamide]",100 to 1000
20,"COCC1(COC)Oc2cc(C(F)(F)F)ccc2-c2nc(NC(=O)c3c(OC)ncnc3OC)sc21 [compound 66, N-(4,4-bis(methoxymethyl)-7-(trifluoromethyl)-4H-chromeno[4,3-d]thiazol-2-yl)-4,6-dimethoxypyrimidine-5-carboxamide]",100 to 1000
21,"COc1ncnc(OC)c1C(=O)Nc1nc2c(s1)C1(CNC1)Oc1cc(C(F)(F)F)ccc1-2 [compound 67, 4,6-dimethoxy-N-(7′-(trifluoromethyl)spiro[azetidine-3,4′-chromeno[4,3-d]thiazol]-2′-yl)pyrimidine-5-carboxamide]",≥ 10000
22,"COc1ncnc(OC)c1C(=O)Nc1nc2c(s1)C1(CN(C(C)=O)C1)Oc1cc(C(F)(F)F)ccc1-2 [compound 68, N-(1-acetyl-7′-(trifluoromethyl)spiro[azetidine-3,4′-chromeno[4,3-d]thiazol]-2′-yl)-4,6-dimethoxypyrimidine-5-carboxamide]",1000 to 10000
23,"COc1ncnc(OC)c1C(=O)Nc1nc2c(s1)C1(CCN(C(=O)C3CC3)CC1)Oc1cc(C(F)(F)F)ccc1-2 [compound 69, N-(1′-(cyclopropanecarbonyl)-7-(trifluoromethyl)spiro[chromeno[4,3-d]thiazole-4,4′-piperidin]-2-yl)-4,6-dimethoxypyrimidine-5-carboxamide]",100 to 1000
24,"CCC1(CC)Oc2cc(C(F)(F)F)ccc2-c2nc(NC(=O)c3c(OC)ncnc3OCCOC)sc21 [compound 70, N-(4,4-diethyl-7-(trifluoromethyl)-4H-chromeno[4,3-d]thiazol-2-yl)-4-methoxy-6-(2-methoxyethoxy)pyrimidine-5-carboxamide]",100 to 1000
